Structures can show the parent of a compound that is named as a salt.
Tests used:
[1] = target: human α2β3γ2 GABAARs (benzodiazepine site) (Homo sapiens (Human), UniProt P18507+P47869); assay: In vitro radioligand binding assay ([3H]Ro15-1788 displacement), α2-GABAAR Ki
Summary of the method: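 Ki derived via Cheng-Prusoff from IC50 for displacement of 4 nM [3H]Ro15-1788 (Kd from saturation binding), with 1-3 μM TP003 defining nonspecific binding. Incubation lasted 1 h at 4° C on membranes of induced L(tk−) cells stably transfected with the human subunits; detection by filtration and scintillation counting.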

[2] = target: human α3β3γ2 GABAARs (benzodiazepine site) (Homo sapiens (Human), UniProt P18507+P34903); assay: In vitro radioligand binding assay ([3H]Ro15-1788 displacement), α3-GABAAR Ki; settings: L(tk-) cell membranes, 4 nM [3H]Ro15-1788
Experimental: The affinity (Ki) of compounds for the benzodiazepine site of human recombinant GABAARs was measured by their ability to inhibit the binding of the selective benzodiazepine antagonist [^3H]Ro15-1788 ([^3H] flumazenil).
Mouse L(tk^−) cells stably expressing human α1β3γ2, α2β3γ2, α3β3γ2, α5β3γ2 GABAARs were generated by transfection of the individual subunits in the dexamethasone-inducible expression vector pMSGneo in mouse L(tk^−) cells (Hadingham et al., 1993, Mol. Pharmacol. 43:970-975 and 1993, Mol. Pharmacol. 44:1211-1218).
L(tk^−) cells stably expressing human α1β3γ2, α2β3γ2, α3β3γ2, α5β3γ2 GABAARs were maintained in DMEM F12 medium supplemented with 10% Foetal Bovine Serum, 1% Penicillin/Streptomycin and 1 mg/mL Geneticin G418 in an incubator at 37° C. with a humidified atmosphere with 5% CO2. Dexamethasone was added to the culture medium to induce GABAAR expression.
L(tk−) cells were harvested and membranes were prepared for each receptor combination in either TE buffer (10 mM Tris·CI/0.1 mM EDTA, pH 7.5) or phosphate buffer (K2PO4 10 mM, pH 7.0) (Hadingham et al. (1992) Proc. Natl. Acad. Sci. USA; 89 (14): 6378-82). Protein concentration, receptor expression and the Kd of [^3H]Ro15-1788 were determined before Ki value of the compounds were evaluated. For Kd evaluation, saturation binding curves were obtained by incubating membrane with various concentrations of [^3H]Ro15-1788 (82.5 Ci/mM), with nonspecific binding measured in the presence of 1-3 μM TP003.
For Ki evaluation, cell membranes were incubated with 4 nM [^3H]Ro15-1788 along with a range of concentrations of test compound. Nonspecific binding was determined using 1-3 μM TP003. All incubations were performed for 1 hour at 4° C. in assay buffer. The total assay volume was 0.5 mL, containing 40 μg/well α1β3γ2, 30 μg/well α2β3γ2, 40 μg/well α3β3γ2 and 30 μg/well for α5β3γ2 of membrane protein. Incubations were terminated by filtration and washing with ice cold Tris-HCl buffer (50 mM, pH=7.4) over Whatman GF/B filters and the radioactivity of the filters was measured using liquid scintillation counting.
The % inhibition of [^3H]Ro15-1788 binding was plotted as a function of compound concentration and the IC50 calculated. From the IC50, the affinity (Ki) was calculated using the method of Cheng and Prusoff using the Kd values obtained for [^3H]Ro15-1788.

[3] = test system: human α2β3γ2 GABAARs; assay: In vitro electrophysiological recording assay (automated patch-clamp), α2-GABAAR relative efficacy; assay type: cell-based; settings: % efficacy normalised to diazepam; GABA EC10-20; concentration generally >= 100 times Ki
Summary of the method: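 Relative efficacy is % enhancement of the leak-subtracted GABA EC10-20 peak current, divided by the separately measured diazepam value; compound generally tested at ≥100× Ki after ≥1 min pre-application. Recordings at room temperature, human receptors stably expressed in L(tk^−) (QPatch, −65 mV) or HEK293 (SyncroPatch, −80 mV) cells.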

Sequence of human α2β3γ2 GABAARs (benzodiazepine site) (P47869 29-451): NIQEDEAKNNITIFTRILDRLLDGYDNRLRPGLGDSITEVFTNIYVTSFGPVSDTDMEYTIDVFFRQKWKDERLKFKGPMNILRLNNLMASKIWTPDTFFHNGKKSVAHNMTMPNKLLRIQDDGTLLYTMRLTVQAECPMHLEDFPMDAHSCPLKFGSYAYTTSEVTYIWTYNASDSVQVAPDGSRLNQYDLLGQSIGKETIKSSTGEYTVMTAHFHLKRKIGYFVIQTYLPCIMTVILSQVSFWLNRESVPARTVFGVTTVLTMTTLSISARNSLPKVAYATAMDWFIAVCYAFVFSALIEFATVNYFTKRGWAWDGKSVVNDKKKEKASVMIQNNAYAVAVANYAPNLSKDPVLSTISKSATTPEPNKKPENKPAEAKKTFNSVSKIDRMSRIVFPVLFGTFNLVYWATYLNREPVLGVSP
Sequence of human α2β3γ2 GABAARs (benzodiazepine site) (P28472 26-473 partner): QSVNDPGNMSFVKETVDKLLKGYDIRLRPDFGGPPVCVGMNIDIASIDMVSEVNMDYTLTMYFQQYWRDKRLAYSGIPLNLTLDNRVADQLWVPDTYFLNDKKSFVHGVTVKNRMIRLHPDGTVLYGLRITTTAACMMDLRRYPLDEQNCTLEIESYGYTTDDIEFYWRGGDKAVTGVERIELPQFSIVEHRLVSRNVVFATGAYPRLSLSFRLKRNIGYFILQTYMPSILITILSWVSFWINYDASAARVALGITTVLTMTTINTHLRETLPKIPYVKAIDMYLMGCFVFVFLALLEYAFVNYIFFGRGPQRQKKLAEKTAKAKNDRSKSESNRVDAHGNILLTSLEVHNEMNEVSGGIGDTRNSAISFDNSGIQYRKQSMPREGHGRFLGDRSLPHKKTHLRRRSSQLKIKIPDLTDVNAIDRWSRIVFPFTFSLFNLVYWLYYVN
Sequence of human α2β3γ2 GABAARs (benzodiazepine site) (P18507 40-475): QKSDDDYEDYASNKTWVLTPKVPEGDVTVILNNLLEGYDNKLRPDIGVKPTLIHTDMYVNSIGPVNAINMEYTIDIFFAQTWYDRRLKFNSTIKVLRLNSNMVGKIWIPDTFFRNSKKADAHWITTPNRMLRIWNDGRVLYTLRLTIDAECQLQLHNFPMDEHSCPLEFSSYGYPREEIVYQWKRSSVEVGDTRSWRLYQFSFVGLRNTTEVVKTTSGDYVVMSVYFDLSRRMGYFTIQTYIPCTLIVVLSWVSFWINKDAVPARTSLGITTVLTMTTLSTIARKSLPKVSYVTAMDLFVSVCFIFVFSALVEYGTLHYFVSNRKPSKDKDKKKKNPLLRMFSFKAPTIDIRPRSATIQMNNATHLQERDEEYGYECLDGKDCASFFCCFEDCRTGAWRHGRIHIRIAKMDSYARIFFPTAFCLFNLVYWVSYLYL

## CCCNC(=O)c1c(N)c2cccc(-c3cccc(OC(F)F)n3)c2[nH]c1=O [Example 2, 4-Amino-8-(6-(difluoromethoxy)pyridin-2-yl)-2-oxo-N-propyl-1,2-dihydroquinoline-3-carboxamide]
[1]
  Ki: 3.33 nM
[2]
  Ki: 1.59 nM
[3]
  α2-GABAAR Relative Efficacy (vs. Diazepam): 0.34

## CCCNC(=O)c1c(N)c2cccc(-c3cc(F)ccn3)c2[nH]c1=O [Example 4, 4-Amino-8-(4-fluoro-2-pyridyl)-2-oxo-N-propyl-1H-quinoline-3-carboxamide]
[1]
  Ki: 1.26 nM
[2]
  Ki: 1.65 nM
[3]
  α2-GABAAR Relative Efficacy (vs. Diazepam): 0.40

## CCCNC(=O)c1c(N)c2cccc(-c3ncccc3C)c2[nH]c1=O [Example 5, 4-Amino-8-(3-methylpyridin-2-yl)-2-oxo-N-propyl-1,2-dihydroquinoline-3-carboxamide]
[1]
  Ki: 5.66 nM
[2]
  Ki: 16.1 nM
[3]
  α2-GABAAR Relative Efficacy (vs. Diazepam): 0.42

## CCCNC(=O)c1c(N)c2cccc(-c3nc(OC)ccc3F)c2[nH]c1=O [Example 8, 4-Amino-8-(3-fluoro-6-methoxypyridin-2-yl)-2-oxo-N-propyl-1,2-dihydroquinoline-3-carboxamide]
[1]
  Ki: 0.38 nM
[2]
  Ki: 0.19 nM
[3]
  α2-GABAAR Relative Efficacy (vs. Diazepam): 0.24

## CCCNC(=O)c1c(N)c2cccc(-c3nc(C(F)(F)F)ccc3C)c2[nH]c1=O [Example 13, 4-Amino-8-[3-methyl-6-(trifluoromethyl)-2-pyridyl]-2-oxo-N-propyl-1H-quinoline-3-carboxamide]
[1]
  Ki: 6.05 nM
[2]
  Ki: 7.6 nM
[3]
  α2-GABAAR Relative Efficacy (vs. Diazepam): 0.34

## CCCNC(=O)c1c(N)c2cccc(-c3cccnc3OC)c2[nH]c1=O [Example 14, 4-Amino-8-(2-methoxypyridin-3-yl)-2-oxo-N-propyl-1,2-dihydroquinoline-3-carboxamide]
[1]
  Ki: 2.13 nM
[2]
  Ki: 6.02 nM
[3]
  α2-GABAAR Relative Efficacy (vs. Diazepam): 0.45

## CCCNC(=O)c1c(N)c2cccc(-c3cncc(OC)c3)c2[nH]c1=O [Example 23, 4-Amino-8-(5-methoxy-3-pyridyl)-2-oxo-N-propyl-1H-quinoline-3-carboxamide]
[1]
  Ki: 2.31 nM
[2]
  Ki: 7.21 nM
[3]
  α2-GABAAR Relative Efficacy (vs. Diazepam): 0.33

## CCCNC(=O)c1c(N)c2cccc(-c3cncc(OC(C)C)c3)c2[nH]c1=O [Example 27, 4-Amino-8-(5-isopropoxypyridin-3-yl)-2-oxo-N-propyl-1,2-dihydroquinoline-3-carboxamide]
[1]
  Ki: 22.7 nM
[2]
  Ki: 10.6 nM
[3]
  α2-GABAAR Relative Efficacy (vs. Diazepam): 0.28

## CCCNC(=O)c1c(N)c2cccc(-c3cc(OCc4coc(C(C)C)n4)ccc3F)c2[nH]c1=O [Example 123, 4-Amino-8-[2-fluoro-5-[(2-isopropyloxazol-4-yl)methoxy]phenyl]-2-oxo-N-propyl-1H-quinoline-3-carboxamide]
[1]
  Ki: 1.71 nM
[3]
  α2-GABAAR Relative Efficacy (vs. Diazepam): 0.2549

## CCCNC(=O)c1c(N)c2cccc(-c3cc(OCc4cncn4C)ccc3F)c2[nH]c1=O [Example 125, 4-Amino-8-(2-fluoro-5-((1-methyl-1H-imidazol-5-yl)methoxy)phenyl)-2-oxo-N-propyl-1,2-dihydroquinoline-3-carboxamide]
[1]
  Ki: 0.37 nM
[3]
  α2-GABAAR Relative Efficacy (vs. Diazepam): 0.22

## CCCNC(=O)c1c(N)c2cccc(-c3cc(OCc4cn(C)cn4)ccc3F)c2[nH]c1=O [Example 126, hydrochloride]
[1]
  Ki: 1.19 nM
[3]
  α2-GABAAR Relative Efficacy (vs. Diazepam): 0.27

## CCCNC(=O)c1c(N)c2cccc(-c3cc(OCc4cc[nH]n4)ccc3F)c2[nH]c1=O [Example 127, 4-Amino-8-[2-fluoro-5-(1H-pyrazol-3-ylmethoxy)phenyl]-2-oxo-N-propyl-1H-quinoline-3-carboxamide]
[1]
  Ki: 0.78 nM
[3]
  α2-GABAAR Relative Efficacy (vs. Diazepam): 0.24

## CCCNC(=O)c1c(N)c2cccc(-c3cc(OCc4ccn(C)n4)ccc3F)c2[nH]c1=O [Example 128, 4-Amino-8-[2-fluoro-5-[(1-methylpyrazol-3-yl)methoxy]phenyl]-2-oxo-N-propyl-1H-quinoline-3-carboxamide]
[1]
  Ki: 1.08 nM
[3]
  α2-GABAAR Relative Efficacy (vs. Diazepam): 0.24

## CCCNC(=O)c1c(N)c2cccc(-c3cc(OCc4cn(C)nn4)ccc3F)c2[nH]c1=O [Example 129, 4-Amino-8-[2-fluoro-5-[(1-methyltriazol-4-yl)methoxy]phenyl]-2-oxo-N-propyl-1H-quinoline-3-carboxamide]
[1]
  Ki: 0.65 nM
[3]
  α2-GABAAR Relative Efficacy (vs. Diazepam): 0.25

## CCCNC(=O)c1c(N)c2cccc(-c3cc(OCc4noc(C)n4)ccc3F)c2[nH]c1=O [Example 130, 4-Amino-8-[2-fluoro-5-[(5-methyl-1,2,4-oxadiazol-3-yl)methoxy]phenyl]-2-oxo-N-propyl-1H-quinoline-3-carboxamide]
[1]
  Ki: 0.65 nM
[3]
  α2-GABAAR Relative Efficacy (vs. Diazepam): 0.18

## CCCNC(=O)c1c(N)c2cccc(-c3cc(OCc4nnc(C)o4)ccc3F)c2[nH]c1=O [Example 131, 4-Amino-8-(2-fluoro-5-((5-methyl-1,3,4-oxadiazol-2-yl)methoxy)phenyl)-2-oxo-N-propyl-1,2-dihydroquinoline-3-carboxamide]
[1]
  Ki: 0.3 nM
[3]
  α2-GABAAR Relative Efficacy (vs. Diazepam): 0.40

## CCCNC(=O)c1c(N)c2cccc(-c3cc(OCc4ccc5[nH]cnc5c4)ccc3F)c2[nH]c1=O [Example 133, 8-(5-((1H-Benzo[d]imidazol-5-yl)methoxy)-2-fluorophenyl)-4-amino-2-oxo-N-propyl-1,2-dihydroquinoline-3-carboxamide]
[1]
  Ki: 1.29 nM
[3]
  α2-GABAAR Relative Efficacy (vs. Diazepam): 0.23

## CCCNC(=O)c1c(N)c2cccc(-c3cc(OCCn4cnnc4)ccc3F)c2[nH]c1=O [Example 134, 4-Amino-8-[2-fluoro-5-[2-(1,2,4-triazol-4-yl)ethoxy]phenyl]-2-oxo-N-propyl-1H-quinoline-3-carboxamide]
[1]
  Ki: 0.17 nM
[3]
  α2-GABAAR Relative Efficacy (vs. Diazepam): 0.04

## CCCNC(=O)c1c(N)c2cccc(-c3cc(OCC4CCOCC4)ccc3F)c2[nH]c1=O [Example 135, 4-Amino-8-[2-fluoro-5-(tetrahydropyran-4-ylmethoxy)phenyl]-2-oxo-N-propyl-1H-quinoline-3-carboxamide]
[1]
  Ki: 0.7 nM
[3]
  α2-GABAAR Relative Efficacy (vs. Diazepam): 0.20

## CCCNC(=O)c1c(N)c2cccc(-c3cc(OCC4COC4)ccc3F)c2[nH]c1=O [Example 136, 4-Amino-8-[2-fluoro-5-(oxetan-3-ylmethoxy)phenyl]-2-oxo-N-propyl-1H-quinoline-3-carboxamide]
[1]
  Ki: 0.9 nM
[3]
  α2-GABAAR Relative Efficacy (vs. Diazepam): 0.24

## CCCNC(=O)c1c(N)c2cccc(-c3cc(CN4CC5(CCN(C)C5)C4)ccc3F)c2[nH]c1=O [Example 139, 4-Amino-8-(2-fluoro-5-((6-methyl-2,6-diazaspiro[3.4]octan-2-yl)methyl)phenyl)-2-oxo-N-propyl-1,2-dihydroquinoline-3-carboxamide]
[1]
  Ki: 1.08 nM
[3]
  α2-GABAAR Relative Efficacy (vs. Diazepam): 0.18

## CCCNC(=O)c1c(N)c2cccc(-c3cc(CN4CC5(CCN(C)CC5)C4)ccc3F)c2[nH]c1=O [Example 140, 4-Amino-8-(2-fluoro-5-((7-methyl-2,7-diazaspiro[3.5]nonan-2-yl)methyl)phenyl)-2-oxo-N-propyl-1,2-dihydroquinoline-3-carboxamide]
[1]
  Ki: 1.88 nM
[3]
  α2-GABAAR Relative Efficacy (vs. Diazepam): 0.34

## CCCNC(=O)c1c(N)c2cccc(-c3cc(CN4CC5(CCOCC5)C4)ccc3F)c2[nH]c1=O [Example 141, hydrochloride]
[1]
  Ki: 2.61 nM
[3]
  α2-GABAAR Relative Efficacy (vs. Diazepam): 0.36

## CCCNC(=O)c1c(N)c2cccc(-c3cc(Cc4ncn(CC)n4)ccc3F)c2[nH]c1=O [Example 145, 4-Amino-8-(5-((1-ethyl-1H-1,2,4-triazol-3-yl)methyl)-2-fluorophenyl)-2-oxo-N-propyl-1,2-dihydroquinoline-3-carboxamide]
[1]
  Ki: 1.29 nM
[3]
  α2-GABAAR Relative Efficacy (vs. Diazepam): 0.28

From patent US20250197368A1 (priority 2020, published 2025)
